Reference: patent US7101568B2, “Methods and compositions for treating solid tumors” (Guilford Pharmaceuticals, Inc., priority 1999, dated 2006)

Assays:
H1299 tumor nodules = experiment: Murine tumor nodule model, H1299 tumor volume doubling time; format: in vivo, mouse; conditions: H1299, 24 mg/kg paclitaxel
Description: A murine tumor nodule model, a widely used and accepted model for investigating the efficacy of therapies for solid tumors, was used to establish the utility of sustained release for solid tumors. Athymic nude Balb/c mice were engrafted with human non-small cell lung cancer cell lines (A549 and H1299, both of which were obtained from the American Type Culture Collection).
(§1) The cells were grown to confluence in DMEM/F12 medium (Mediatech, Herndon, Va.) supplemented with 10% fetal bovine serum (“growth medium”) under antibiotic-free conditions at 37° in a 5% CO2 atmosphere. After growing under standard these tissue culture conditions, the cells were enzymatically detached, enumerated, and the concentration was adjusted as required.
(§2) The cells were mixed 1:1 with Matrigel™ as an enhancer for engraftment, and 2×10^6 cells were injected subcutaneously on the flanks. Tumors were allowed to grow until achieving a volume of approximately 200-400 mm^3, as determined by the formula: Tumor volume=(length)×(width)×(height) The dimensions of the tumor on each test animal were measured directly with calipers.
Various formulations of paclitaxel were administered to the test animals bearing tumors, either systemically or intratumorally. Each animal was weighed at the time of treatment so that dosages could be adjusted to achieve the mg/kg amounts reported. […]
Intratumoral administration (“IT”), on the other hand, was accomplished by the following procedure: • (1) injecting a single volume of about 100 μl (0.1 mL) the test composition into the center of the tumor nodule with a 21-25 gauge needle over a time period of about 10-20 seconds; • (2) infusing the volume over about 10-15 seconds, and then leaving the needle in place for an additional time of about 10-20 seconds; and • (3) withdrawing the needle. Following the treatments, all mice were tagged, and the tumors were measured three times weekly with calipers. […]
Time-dependent changes in H1299 tumor nodule growth and/or sizes following different treatments were determined. […]

A549 tumor nodules = experiment: Murine tumor nodule model, A549 tumor volume doubling time; format: in vivo, mouse; conditions: A549, 24 mg/kg paclitaxel
Description: Athymic nude Balb/c mice were engrafted with human non-small cell lung cancer cell lines (A549 and H1299, both of which were obtained from the American Type Culture Collection).
as §1, §2
Various formulations of paclitaxel were administered to the test animals bearing tumors, either systemically or intratumorally. Each animal was weighed at the time of treatment so that dosages could be adjusted to achieve the mg/kg amounts reported. Systemic administration was achieved by injecting the test composition into the intraperitoneal cavity of the test animal. For intraperitoneal (“IP”) injections, the animals received a total injection volume of approximately 1 mL.
Intratumoral administration (“IT”), on the other hand, was accomplished by the following procedure: • (1) injecting a single volume of about 100 μl (0.1 mL) the test composition into the center of the tumor nodule with a 21-25 gauge needle over a time period of about 10-20 seconds; • (2) infusing the volume over about 10-15 seconds, and then leaving the needle in place for an additional time of about 10-20 seconds; and • (3) withdrawing the needle. Following the treatments, all mice were tagged, and the tumors were measured three times weekly with calipers. Test animals were also weighed once weekly.
The tumor volume doubling time was determined from the tumor measurements in all treatment groups.

[1] = intratumoral, listed as conventional paclitaxel

## CC(=O)O[C@H]1C(=O)[C@@]2(C)[C@H]([C@H](OC(=O)c3ccccc3)[C@]3(O)C[C@H](OC(=O)[C@H](O)[C@@H](NC(=O)c4ccccc4)c4ccccc4)C(C)=C1C3(C)C)[C@]1(OC(C)=O)CO[C@@H]1C[C@@H]2O [conventionally formulated paclitaxel, paclitaxel]
H1299 tumor nodules; intraperitoneal
  tumor volume doubling time: 12 ± 1.9 days
H1299 tumor nodules; intratumoral
  tumor volume doubling time: 11.2 ± 1.9 days
H1299 tumor nodules; [1]
  tumor volume doubling time: 11 days
A549 tumor nodules; intraperitoneal
  tumor volume doubling time: 11.5 ± 2.3 days
A549 tumor nodules; intratumoral
  tumor volume doubling time: 10.2 ± 4.7 days
A549 tumor nodules; [1]
  tumor volume doubling time: 10 days
